{
  "source": "paper PMC8495455",
  "about": "“Discovery of a transdermally deliverable pentapeptide for activating AdipoR1 to promote hair growth” (EMBO Molecular Medicine, 2021)",
  "key": {"human DP cells": {"system": "human DP cells", "test": "MTT cell proliferation assay, DP cells", "type": "cell-based", "settings": "48 h", "from_the_text": "To design transdermally deliverable AdipoR1 agonist, we further assessed the 15‐mer sequence by cutting it into several 5‐mer peptides (Fig EV1B) (Bos & Meinardi, [2000]). Based on the fact that AdipoRs are expressed in HF cells, including dermal papilla (DP) and outer root sheath (ORS) cells (Won et al, [2012]), we performed a cell proliferation assay on human DP and ORS cells to see if there is any potential biological effect of the 5‐mer peptides on the human HF cells.\nDermal papilla cells and ORS cells were seeded into a 96‐well plate (1.0 × 10^4 cells/well) with serum‐free culture media for 24 h and then treated with each candidate 5‐mer peptide (in 0.5 μg/ml or 5 μg/ml) for 48 h. After the addition of MTT solution (20 μl, 5 mg/ml) to each well, the cells were incubated for 4 h at 37°C in the dark room and then incubated with dimethyl sulfoxide (DMSO, 200 μl) for 20 min at room temperature. The samples were assessed by measuring the absorbance at 570 nm with an absorbance microplate reader (VersaMax)."}, "FGF7 protein": {"system": "FGF7 protein", "test": "Growth factor protein quantitation in DP cell medium, FGF7", "type": "cell-based, human", "settings": "for protein_FGF7: DP cell medium", "from_the_text": "Next, we investigated the downstream effects of P5 on hair growth factor genes and proteins in DP cells. […] We tested whether P5 can also increase the mRNA levels and proteins of hair growth factors in DP cells: IGF‐1, VEGF, HGF, platelet‐derived growth factor alpha (PDGFA), and fibroblast growth factor (FGF) 7, which are known to induce or maintain the anagen phase of the hair cycle (Jindo et al, [1994]; Philpott et al, [1994]; Yano et al, [2001]; Jang, [2005]; Tomita et al, [2006]; Iino et al, [2007]).\nHuman DP cells were grown on a 100‐mm cell culture dish to 100% confluency. After washed by PBS three times, the cells were cultured with serum‐free DMEM and treated with P5. After 48 h, the medium was collected and filtered by a […]. The filtrate was then concentrated using a centrifugal concentrator (Vivaspin 6, 10‐kDa molecular weight cutoff, centrifuged 2,600 g at 4°C for 13 min, Sartorius Stedim Biotech). The signals of each protein in the concentrated media were detected and quantified, based on the enzyme‐linked immunosorbent assay (Human Cytokine Antibody Array C2000, RayBiotech)."}, "Adipor1−/− mice": {"system": "Adipor1−/− mice", "test": "Mouse hair cycle modulation, histology and anagen induction score, Adipor1−/− mice", "type": "in vivo", "from_the_text": "To test whether the effect of P5 is mediated through AdipoR1 in vivo, we used Adipor1 ^−/− mice (Yamauchi et al, [2007]; Okada‐Iwabu et al, [2013]). […] Consistently, the anagen induction effects of P5 was abolished in the Adipor1 ^−/− mice (Fig 4I and J), in contrast to in WT mouse (Appendix Fig S2). […] Taken together, topical P5 treatment can accelerate hair growth through AdipoR1 in vivo.\nParaffin‐embedded mouse cutaneous back tissue was sectioned (4 μm thickness) and stained with hematoxylin and eosin. […] IF intensity was observed and recorded with a Nikon Eclipse Ni‐E fluorescence microscope (Nikon).\nFor the hair cycle modulation experiment, Adipoq ^−/− (stock #008195; JAX) (Ma et al, [2002]), Adipor1 ^−/− (Yamauchi et al, [2007]; Okada‐Iwabu et al, [2013]), or C57BL/6 (KOATECH) female mice was used (Müller‐Röver et al, [2001]). […] The mouse hair growth score (a value from 0 to 100 based on the skin pigmentation and hair shaft density) was monitored and documented at designated days with the experimenters being blind to the conditions, following a previous study (Chai et al, [2019]). […] On day 35, we obtained dorsal cutaneous tissue for histological analysis: anagen induction scores (calculated using an assigned arbitrary score; telogen = 1, anagen I–VI = 2–7) (Müller‐Röver et al, [2001]). […]"}},
  "data": [
    {"substance": "GLYYF [P5, GST-fused (GST-P5) in pulldown assays]", "values": [
      {"measurement": "Relative cell proliferation, DP", "setting": "human DP cells; 0.5μg/ml, control = 1, replicate 1", "value": 1.11},
      {"measurement": "Relative cell proliferation, DP", "setting": "human DP cells; 0.5μg/ml, control = 1, replicate 2", "value": 1.117},
      {"measurement": "Relative cell proliferation, DP", "setting": "human DP cells; 0.5μg/ml, control = 1, replicate 3", "value": 1.106},
      {"measurement": "Relative cell proliferation, DP", "setting": "human DP cells; 5μg/ml, control = 1, replicate 1", "value": 1.094},
      {"measurement": "Relative cell proliferation, DP", "setting": "human DP cells; 5μg/ml, control = 1, replicate 2", "value": 1.179},
      {"measurement": "Relative cell proliferation, DP", "setting": "human DP cells; 5μg/ml, control = 1, replicate 3", "value": 1.068},
      {"measurement": "Relative cell proliferation, DP", "setting": "human DP cells; 5μg/ml, control = 1, replicate 4", "value": 1.07},
      {"measurement": "Relative cell proliferation, DP", "setting": "human DP cells; 5μg/ml, control = 1, replicate 5", "value": 1.01},
      {"measurement": "Cell proliferative effect, DP cells", "setting": "human DP cells; 0.5 or 5 μg/ml, Paired t-test vs control", "value": "significant cell proliferative effects"},
      {"measurement": "protein_FGF7", "setting": "FGF7 protein; P5 5μM, relative to Control = 1, replicate 1", "value": 1.396},
      {"measurement": "protein_FGF7", "setting": "FGF7 protein; P5 5μM, relative to Control = 1, replicate 2", "value": 1.679},
      {"measurement": "protein_FGF7", "setting": "FGF7 protein; P5 5μM, relative to Control = 1, replicate 3", "value": 1.269},
      {"measurement": "protein_FGF7", "setting": "FGF7 protein; P5 25μM, relative to Control = 1, replicate 1", "value": 3.318},
      {"measurement": "protein_FGF7", "setting": "FGF7 protein; P5 25μM, relative to Control = 1, replicate 2", "value": 3.35},
      {"measurement": "protein_FGF7", "setting": "FGF7 protein; P5 25μM, relative to Control = 1, replicate 3", "value": 1.357},
      {"measurement": "FGF7 protein expression level", "setting": "FGF7 protein; P5-treated DP cells, 48 h medium, n = 3", "value": "elevated"},
      {"measurement": "Histology / anagen induction score vs vehicle", "setting": "Adipor1−/− mice", "value": "anagen HF was not found"}
    ]}
  ]
}
